Test results reported in PMC7156458, “Synthetic biology based construction of biological activity-related library of fungal decalin-containing diterpenoid pyrones” (Nature Communications, 2020).

Molecular target: Aβ42 (Homo sapiens, UniProt P05067)
Assay: Th-T (thioflavin-T) assay of Aβ42 aggregation
Format: biochemical
Conditions: for Th-T fluorescence, mean of three wells: compound at 50

Sequence of Aβ42 (P05067 672-713): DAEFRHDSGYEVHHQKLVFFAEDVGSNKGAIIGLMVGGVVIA

**Q.** Which “Th-T fluorescence, mean of three wells” value (reading M54 of time course) does the source give for `C=C1CC[C@@H]2[C@](C)(CC[C@H]3O[C@H](C=C(C)C)C[C@@]23C)[C@@H]1Cc1c(OC)oc(CO)c(C)c1=O` [Compound 20] here?
**A.** 2.134

**Q.** What about the “Th-T fluorescence, mean of three wells” value (reading M55 of time course) of the same compound?
**A.** 2.09

**Q.** What about the “Th-T fluorescence, mean of three wells” value (reading M56 of time course) of the same compound?
**A.** 2.129

**Q.** What about the “Th-T fluorescence, mean of three wells” value (reading M57 of time course) of the same compound?
**A.** 2.102

**Q.** What about the “Th-T fluorescence, mean of three wells” value (reading M58 of time course) of the same compound?
**A.** 2.115

**Q.** What about the “Th-T fluorescence, mean of three wells” value (reading M59 of time course) of the same compound?
**A.** 2.0923

**Q.** And the “Th-T fluorescence, mean of three wells” value (reading M60 of time course)?
**A.** 2.089

**Q.** What about the “Th-T fluorescence, mean of three wells” value (reading M61 of time course) of the same compound?
**A.** 2.104

**Q.** What about the “Th-T fluorescence, mean of three wells” value (reading M62 of time course) of the same compound?
**A.** 2.094

**Q.** And the “Th-T fluorescence of Aβ42 with compound, mean of three wells (Fig. 7a source data)” value (“Th-T fluorescence of Aβ42 with compound” below) (concentration 10, unit not given, time-course reading M129)?
**A.** 3.179

**Q.** And the “Th-T fluorescence of Aβ42 with compound” value (concentration 10, unit not given, time-course reading M130)?
**A.** 3.204

**Q.** And the “Th-T fluorescence of Aβ42 with compound” value (concentration 10, unit not given, time-course reading M131)?
**A.** 3.189

**Q.** What about the “Th-T fluorescence of Aβ42 with compound” value (concentration 10, unit not given, time-course reading M132) of the same compound?
**A.** 3.188

**Q.** And the “Th-T fluorescence of Aβ42 with compound” value (concentration 10, unit not given, time-course reading M133)?
**A.** 3.166

**Q.** What about the “Th-T fluorescence of Aβ42 with compound” value (concentration 10, unit not given, time-course reading M134) of the same compound?
**A.** 3.1894

**Q.** What about the “Th-T fluorescence of Aβ42 with compound” value (concentration 10, unit not given, time-course reading M135) of the same compound?
**A.** 3.162

**Q.** And the “Th-T fluorescence of Aβ42 with compound” value (concentration 10, unit not given, time-course reading M136)?
**A.** 3.159

**Q.** What about the “Th-T fluorescence of Aβ42 with compound” value (concentration 10, unit not given, time-course reading M137) of the same compound?
**A.** 3.15

**Q.** And the “Th-T fluorescence of Aβ42 with compound” value (concentration 10, unit not given, time-course reading M138)?
**A.** 3.16

**Q.** And the “Th-T fluorescence of Aβ42 with compound” value (concentration 10, unit not given, time-course reading M139)?
**A.** 3.169

**Q.** What about the “Th-T fluorescence of Aβ42 with compound” value (concentration 10, unit not given, time-course reading M140) of the same compound?
**A.** 3.158

**Q.** And the “Th-T fluorescence of Aβ42 with compound” value (concentration 10, unit not given, time-course reading M141)?
**A.** 3.147

**Q.** What about the “Th-T fluorescence of Aβ42 with compound” value (concentration 10, unit not given, time-course reading M142) of the same compound?
**A.** 3.131

**Q.** What about the “Th-T fluorescence of Aβ42 with compound” value (concentration 10, unit not given, time-course reading M143) of the same compound?
**A.** 3.135

**Q.** What about the “Th-T fluorescence of Aβ42 with compound” value (concentration 10, unit not given, time-course reading M144) of the same compound?
**A.** 3.139

**Q.** What about the “Th-T fluorescence of Aβ42 with compound” value (concentration 10, unit not given, time-course reading M145) of the same compound?
**A.** 3.1201

**Q.** What about the “Th-T fluorescence of Aβ42 with compound” value (concentration 20, unit not given, time-course reading M129) of the same compound?
**A.** 3.1

**Q.** And the “Th-T fluorescence of Aβ42 with compound” value (concentration 20, unit not given, time-course reading M130)?
**A.** 3.095

**Q.** And the “Th-T fluorescence of Aβ42 with compound” value (concentration 20, unit not given, time-course reading M131)?
**A.** 3.098

**Q.** And the “Th-T fluorescence of Aβ42 with compound” value (concentration 20, unit not given, time-course reading M132)?
**A.** 3.079

**Q.** What about the “Th-T fluorescence of Aβ42 with compound” value (concentration 20, unit not given, time-course reading M133) of the same compound?
**A.** 3.072

**Q.** And the “Th-T fluorescence of Aβ42 with compound” value (concentration 20, unit not given, time-course reading M134)?
**A.** 3.073

**Q.** What about the “Th-T fluorescence of Aβ42 with compound” value (concentration 20, unit not given, time-course reading M135) of the same compound?
**A.** 3.076

**Q.** What about the “Th-T fluorescence of Aβ42 with compound” value (concentration 20, unit not given, time-course reading M136) of the same compound?
**A.** 3.0605

**Q.** And the “Th-T fluorescence of Aβ42 with compound” value (concentration 20, unit not given, time-course reading M137)?
**A.** 3.049

**Q.** What about the “Th-T fluorescence of Aβ42 with compound” value (concentration 20, unit not given, time-course reading M138) of the same compound?
**A.** 3.042

**Q.** And the “Th-T fluorescence of Aβ42 with compound” value (concentration 20, unit not given, time-course reading M139)?
**A.** 3.041

**Q.** And the “Th-T fluorescence of Aβ42 with compound” value (concentration 20, unit not given, time-course reading M140)?
**A.** 3.025

**Q.** And the “Th-T fluorescence of Aβ42 with compound” value (concentration 20, unit not given, time-course reading M141)?
**A.** 3.02

**Q.** And the “Th-T fluorescence of Aβ42 with compound” value (concentration 20, unit not given, time-course reading M142)?
**A.** 3.019

**Q.** What about the “Th-T fluorescence of Aβ42 with compound” value (concentration 20, unit not given, time-course reading M143) of the same compound?
**A.** 3.013

**Q.** What about the “Th-T fluorescence of Aβ42 with compound” value (concentration 20, unit not given, time-course reading M144) of the same compound?
**A.** 3.009

**Q.** What about the “Th-T fluorescence of Aβ42 with compound” value (concentration 20, unit not given, time-course reading M145) of the same compound?
**A.** 2.993

**Q.** What about the “Th-T fluorescence of Aβ42 with compound” value (concentration 50, unit not given, time-course reading M129) of the same compound?
**A.** 2.106

**Q.** What about the “Th-T fluorescence of Aβ42 with compound” value (concentration 50, unit not given, time-course reading M130) of the same compound?
**A.** 2.116

**Q.** What about the “Th-T fluorescence of Aβ42 with compound” value (concentration 50, unit not given, time-course reading M131) of the same compound?
**A.** 2.114

**Q.** And the “Th-T fluorescence of Aβ42 with compound” value (concentration 50, unit not given, time-course reading M132)?
**A.** 2.119

**Q.** And the “Th-T fluorescence of Aβ42 with compound” value (concentration 50, unit not given, time-course reading M133)?
**A.** 2.114

**Q.** And the “Th-T fluorescence of Aβ42 with compound” value (concentration 50, unit not given, time-course reading M134)?
**A.** 2.123

**Q.** And the “Th-T fluorescence of Aβ42 with compound” value (concentration 50, unit not given, time-course reading M135)?
**A.** 2.118

**Q.** What about the “Th-T fluorescence of Aβ42 with compound” value (concentration 50, unit not given, time-course reading M136) of the same compound?
**A.** 2.117

**Q.** What about the “Th-T fluorescence of Aβ42 with compound” value (concentration 50, unit not given, time-course reading M137) of the same compound?
**A.** 2.122

**Q.** And the “Th-T fluorescence of Aβ42 with compound” value (concentration 50, unit not given, time-course reading M138)?
**A.** 2.119

**Q.** And the “Th-T fluorescence of Aβ42 with compound” value (concentration 50, unit not given, time-course reading M139)?
**A.** 2.116

**Q.** And the “Th-T fluorescence of Aβ42 with compound” value (concentration 50, unit not given, time-course reading M140)?
**A.** 2.117

**Q.** What about the “Th-T fluorescence of Aβ42 with compound” value (concentration 50, unit not given, time-course reading M141) of the same compound?
**A.** 2.123

**Q.** And the “Th-T fluorescence of Aβ42 with compound” value (concentration 50, unit not given, time-course reading M142)?
**A.** 2.118
